Measurements published in publication PMC10330135 (Chemistry (Weinheim an der Bergstrasse, Germany), 2023).

Assays:
Assay type in all cases: biochemical
PtmJ = target: T1, PtmJ (Streptomyces pactum, UniProt A8R0J5); experiment: enzymatic glycosylation
T1 sequence (A8R0J5 1-318): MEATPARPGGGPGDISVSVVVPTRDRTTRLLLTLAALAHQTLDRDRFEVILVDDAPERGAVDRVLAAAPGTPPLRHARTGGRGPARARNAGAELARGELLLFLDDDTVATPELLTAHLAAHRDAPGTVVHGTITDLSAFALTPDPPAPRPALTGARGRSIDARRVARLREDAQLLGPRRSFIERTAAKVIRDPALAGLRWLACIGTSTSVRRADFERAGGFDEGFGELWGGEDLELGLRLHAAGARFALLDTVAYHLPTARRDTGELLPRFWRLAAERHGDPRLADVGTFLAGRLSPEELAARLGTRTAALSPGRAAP

PtmN = target: T2, PtmN (Streptomyces pactum, UniProt A8R0J9); experiment: mass spectrometry of product; conditions: NAD+; cofactor recycling as for GlcNAc-3AAP
T2 sequence (A8R0J9 1-351): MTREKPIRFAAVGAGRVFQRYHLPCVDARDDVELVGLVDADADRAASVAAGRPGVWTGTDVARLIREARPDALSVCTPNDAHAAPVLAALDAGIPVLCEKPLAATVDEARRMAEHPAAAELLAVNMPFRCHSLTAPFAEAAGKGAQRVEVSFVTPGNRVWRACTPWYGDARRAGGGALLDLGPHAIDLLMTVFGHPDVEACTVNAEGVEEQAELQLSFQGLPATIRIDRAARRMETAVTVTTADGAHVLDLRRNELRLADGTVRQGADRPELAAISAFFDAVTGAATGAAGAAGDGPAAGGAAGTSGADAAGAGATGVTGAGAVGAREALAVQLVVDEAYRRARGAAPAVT

PtmG = target: T3, PtmG (Streptomyces pactum, UniProt A8R0J2); experiment: mass spectrometry of substrate consumption; conditions: formed in situ by PtmN, PtmA and PtmB; 10 h with PtmG
T3 sequence (A8R0J2 1-378): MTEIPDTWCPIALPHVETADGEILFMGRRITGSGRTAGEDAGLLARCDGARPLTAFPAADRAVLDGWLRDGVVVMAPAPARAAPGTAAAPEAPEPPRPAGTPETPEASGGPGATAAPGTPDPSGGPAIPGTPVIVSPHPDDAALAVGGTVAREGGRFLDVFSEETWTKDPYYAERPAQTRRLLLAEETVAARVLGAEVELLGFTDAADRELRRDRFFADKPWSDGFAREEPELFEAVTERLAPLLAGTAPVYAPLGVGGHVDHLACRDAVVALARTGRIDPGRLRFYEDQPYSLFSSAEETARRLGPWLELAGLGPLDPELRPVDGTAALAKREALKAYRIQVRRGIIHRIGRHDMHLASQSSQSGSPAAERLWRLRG

CC(=O)NCCSC(=O)c1cccc(N)c1 [3ABA-SNAC]
enzymatic glycosylation; product used in the next reactions (PtmJ): The 3ABA-SNAC was first glycosylated with the glycosyltransferase PtmJ

CC(=O)NCCSC(=O)c1cccc(N[C@@H]2O[C@H](CO)[C@@H](O)[C@H](O)[C@H]2NC(C)=O)c1 [compound 15, GlcNAc-3ABA-SNAC]
mass spectrometry of product (PtmN): reaction of GlcNAc-3ABA-SNAC with PtmN showed an oxidation product

CC(=O)N[C@@H]1[C@@H](NC(N)=O)[C@H](O)[C@@H](CO)O[C@H]1Nc1cccc(C(C)=O)c1 [compound 20, N-carbamoylated GlcNAc-3AAP]
mass spectrometry of substrate consumption (PtmG): after incubation with PtmG, the carbamoylated GlcNAc-3AAP was partially consumed
